Laboratory results from patent publication US7411002B2, “Polycationic sulfonamides and use thereof” (priority 2006, dated 2008).
pEC50, pIC50: −log10 of the molar value. Read-outs that look alike come from different tables or passages of the source.

Experiments:
[1] = Rapid-throughput BODIPY-TR cadaverine (BC) fluorescence displacement assay for binding affinity to LPS; settings: half-maximal effective displacement of BODIPY-TR cadaverine probe from LPS; 50 mM Tris buffer, pH 7.4; read-out: Binding affinity (BC displacement) ED50 value
Procedure: Rapid-throughput Fluorescence Displacement Assay for quantifying binding affinities to LPS. […] Polymyxin B (PMB), a peptide antibiotic known to bind and neutralize LPS^65 serves as the positive control and reference compound for every plate, enabling the quantitative assessment of repeatability and reproducibility (CV and Z′ factors) for the assay. Automated liquid handling is performed on a Precision 2000 automated microplate pipetting system, programmed using the Precision Power software, Bio-Tek Instruments Inc., VT, USA. Results are reported as half-maximal effective displacement of probe (ED50) (Tables A-F). In all experiments, Polymyxin B (PMB), a decapeptide antibiotic, known to bind and neutralize LPS,^66-69 is used as a reference compound.

[2] = test system: LPS-induced NF-κB induction in human embryonic kidney 293 cells cotransfected with TLR4, CD14 and MD2; assay: Inhibition of LPS induction of NF-κB (seAP reporter) in HEK 293 cells cotransfected with TLR4, CD14 and MD2; format: cell-based; settings: for pIC50: inhibition of LPS-induced NF-κB induction, HEK 293 TLR4/CD14/MD2 reporter cells, read-out: NFκβ inhibition IC50 value; for activity in words (LPS binding / cell-based cytokine inhibition, comment on Table F): qualitative comparison with spermine-sulfonamide counterparts
Text: Assessment of Inhibition of Cytokine Induction (NF-κB): The inhibition of induction of NF-κB (a key transcripitional activator of the innate immune system, leading to uncontrolled cytokine release^72,73 which ultimately leads to multiple organ failure and the shock syndrome) is quantified using human embryonic kidney 293 cells cotransfected with TLR4 (LPS receptor), CD14 and MD2 (co-receptors), available from InvivoGen, Inc. (HEK-Bluetm, San Diego, Calif.), as per protocols provided by the vendor. Stable expression of secreted alkaline phosphatase (seAP) under control of NF-κB/AP-1 promoters is inducible by LPS, and extracellulare seAP in the supernatant is proportional to NF-κB induction. seAP is assayed spectrophotometrically using an alkaline phosphatase-specific chromogen at 620 nm using a rapid-throughput, automated protocol employing a Bio-Tek P2000 liquid handler. Results showing the ability of polycationic sulfonamide compounds to inhibit the induction of NF-κB by LPS are shown in Tables A-F.

[3] = test system: LPS-induced nitric oxide production in murine macrophage J774A.1 cells; assay: NO inhibition (Griess nitrite assay) in LPS-stimulated murine macrophage J774A.1 cells; format: cell-based; settings: Mus musculus, J774.A1, 10 ng/ml LPS, 16 h
Procedure: Assessment of neutralization of LPS toxicity: NO inhibition activity. Nitric oxide production is measured as total nitrite in murine macrophage J774A.1 cells using the Griess assay^70 as described previously.^71 J774A.1 cells are plated at ˜10^5/ml in a volume of 40 μl/well, in 384-well, flat-bottomed, cell culture treated microtiter plates and subsequently stimulated with 10 ng/ml lipopolysaccharide (LPS). Concurrent to LPS stimulation, serially diluted concentrations of test compounds are added to the cell medium and left to incubate for 16 h. Polymyxin B is used as reference compound in each plate. Positive-(LPS stimulation only) and negative-controls (J774A.1 medium only) are included in each experiment. Nitrite concentrations are measured by adding 40 μl of supernatant to equal volumes of Griess reagents (50 μl/well; 0.1% NED solution in ddH2O and 1% sulfanilamide, 5% phosphoric acid solution in ddH2O) and incubating for 15 minutes at room temperature in the dark. Absorbance at 535 nm is measured using a Molecular Devices Spectramax M2 multifunction plate reader (Sunnyvale, Calif.). Nitrite concentrations are interpolated from standard curves obtained from serially diluted sodium nitrite standards. IC50 values are determined for compounds that neutralize LPS inhibit NO production in a dose-dependent manner (Tables A-F). Results in this assay parallel those in the binding assay.

Row | Compound | pEC50 [1] | pIC50 ([2]; Homo sapiens, HEK293) | pIC50 [2] | pIC50 [3] | activity in words (LPS binding / cell-based cytokine inhibition, comment on Table F) [2]
1 | CCCCCCCCS(=O)(=O)NCCCNC/C=C/CNCCCN [MQTS 2415] | 4.90 | 4.90 | – | – | –
2 | N^1,N^14-Bis[N-decanylsulfonyl-3-aminopropyl]-1,14-diamino-5,10-diazabutadecane [MQTS 2398] | 4.87 | – | 5.38 | – | –
3 | CCCCCCCCCCS(=O)(=O)NCCCNCCCNCCCCNCCCN [MQTS 2381] | 5.54 | 6.56 | – | 5.96 | –
4 | CCCCCCCCCCCCS(=O)(=O)NCCCNC/C=C/CNCCCN [MQTS 2416] | 5.42 | 6.28 | – | – | active
5 | CCCCCCCCS(=O)(=O)NCCCN(CCCNCCCCNCCCN)CCCNS(=O)(=O)CCCCCCCC [MQTS 2406, N^1-Bis[N-octanylsulfonyl-3-aminopropyl]-1,14-diamino-5,10-diazabutadecane] | 5.66 | 6.17 | – | – | –
6 | CCCCCCCCCCCCCCCCS(=O)(=O)N(CCCN)CCCCNCCCN [MQTS 2363] | 4.34 | 5.57 | – | 4.86 | greatly diminished activity
7 | CCCCCCCC(=O)NCCCN(CCCNCCCNCCCCNCCCN)CCCNC(=O)CCCCCCC [MQTS 2418] | 6.00 | 5.50 | – | 5.61 | greatly diminished activity
8 | CCCCCCCCCCCCCCCCS(=O)(=O)NCCCN(CCCNCCCCNCCCN)CCCNS(=O)(=O)CCCCCCCCCCCCCCCC [MQTS 2396] | 4.58 | 5.31 | – | 4.82 | –
9 | CCCCCCCCCCS(=O)(=O)NCCCNCCCCNCCCN [MQTS 2377, N^1-Decanylsulfonyl-1,14-diamino-5,10-diazabutadecane] | 5.43 | 6.30 | – | 5.35 | –
10 | CCCCCCCCCCS(=O)(=O)NCCCN(CCCNCCCNCCCCNCCCN)CCCNS(=O)(=O)CCCCCCCCCC [MQTS 2417, N^1-Bis[N-decanylsulfonyl-3-aminopropyl]-1,18-diamino-5,9,14-triazaoctadecane] | 5.94 | 5.66 | – | 6.37 | –
11 | CCCCCCCCCCCCS(=O)(=O)NCCCN(CCCNCCCNCCCCNCCCN)CCCNS(=O)(=O)CCCCCCCCCCCC [MQTS 2390, N^1-Bis[N-dodecanylsulfonyl-3-aminopropyl]-1,18-diamino-5,9,14-triazaoctadecane] | 5.17 | 4.79 | – | 6.29 | –
12 | CCCCCCCCCCCCS(=O)(=O)NCCCN(CCCNCCCCNCCCN)CCCNS(=O)(=O)CCCCCCCCCCCC [MQTS 2420, N^1-Bis[N-dodecanylsulfonyl-3-aminopropyl]-1,14-diamino-5,10-diazabutadecane] | 5.40 | 4.88 | – | 5.64 | –
13 | CCCCCCCCS(=O)(=O)NCCNCCCNCCN [MQTS 2411] | 4.97 | 4.86 | – | – | –
14 | CCCCCCCCCCCCCCCCS(=O)(=O)NCCCCCCCCCCCCN [MQTS 2369] | – | 3.70 | – | – | much lower activities
15 | CCCCCCCCCCCCS(=O)(=O)NCCCNCCCNCCCCNCCCN [MQTS 2382, N^1-Dodecanylsulfonyl-1,18-diamino-5,9,14-triazaoctadecane] | 5.53 | 6.72 | – | 6.41 | –
16 | CCCCCCCCCCCCCCCCCCS(=O)(=O)NCCCNCCCCNCCCN [MQTS 2378] | 5.22 | 6.44 | – | 6.32 | –
17 | CCCCCCCCCCCCS(=O)(=O)NCCCNCCCNCCCN [MQTS 2414] | 5.37 | 6.44 | – | – | –

Row | Compound | pEC50 [1] | pIC50 ([2]; Homo sapiens, HEK293) | pIC50 [2] | pIC50 [3] | activity in words (LPS binding / cell-based cytokine inhibition, comment on Table F) [2]
18 | CCCCCCCCCCS(=O)(=O)NCCCN(CCCNCCCCNCCCN)CCCNS(=O)(=O)CCCCCCCCCC [MQTS 2419, N^1-Bis[N-decanylsulfonyl-3-aminopropyl]-1,14-diamino-5,10-diazabutadecane] | 5.62 | 5.29 | – | 5.96 | –
19 | CCCCCCCC(=O)NCCCN(CCCNCCCCNCCCN)CCCNC(=O)CCCCCCC [MQTS 2421] | 5.88 | 5.01 | – | 5.04 | greatly diminished activity
20 | CCCCCCCCCCCCCCCCS(=O)(=O)NCCCN(CCCN)CCCN [MQTS 2409] | 4.91 | 5.04 | – | – | –
21 | N^1,N^14-Bis[N-octanylsulfonyl-3-aminopropyl]-1,14-diamino-5,10-diazabutadecane [MQTS 2397] | 5.59 | – | 6.22 | – | –
22 | N^1,N^14-Bis[N-dodecanylsulfonyl-3-aminopropyl]-1,14-diamino-5,10-diazabutadecane [MQTS 2399] | 4.26 | – | 4.99 | – | –
23 | N^1,N^14-Bis[N-hexadecanylsulfonyl-3-aminopropyl]-1,14-diamino-5,10-diazabutadecane [MQTS 2400] | 3.88 | – | 4.93 | – | –
24 | CCCCCCCCS(=O)(=O)NCCCNCCCNCCCN [MQTS 2413] | 5.17 | 5.25 | – | – | –
25 | CCCCCCCCCCCCCCCCCCS(=O)(=O)NCCCN(CCCNCCCCNCCCN)CCCNS(=O)(=O)CCCCCCCCCCCCCCCCCC [MQTS 2394, N^1-Bis[N-octadecanylsulfonyl-3-aminopropyl]-1,14-diamino-5,10-diazabutadecane] | 4.55 | 4.19 | – | 2.63 | –
26 | CCCCCCCCCCCCS(=O)(=O)NCCCNCCCCNCCCN [MQTS 2357, N^1-Dodecanylsulfonyl-1,14-diamino-5,10-diazabutadecane] | 5.57 | 6.39 | – | 5.87 | –
27 | CCCCCCCCCCCCCCCCCCS(=O)(=O)NCCCNCCCCNCCCCNCCCCNCCCNS(=O)(=O)CCCCCCCCCCCCCCCCCC [MQTS 2401, N^1,N^14-Bis[N-octadecanylsulfonyl-3-aminopropyl]-1,14-diamino-5,10-diazabutadecane] | < 2.30 | – | 5.19 | – | –
28 | CCCCCCCCS(=O)(=O)NCCCNCCCNCCCCNCCCN [MQTS 2379, N^1-Octanylsulfonyl-1,18-diamino-5,9,14-triazaoctadecane] | 5.55 | 6.09 | – | 5.19 | –
29 | CCCCCCCCS(=O)(=O)NCCCNCCCCNCCCN [MQTS 2351, N^1-Octanylsulfonyl-1,14-diamino-5,10-diazabutadecane] | 5.18 | 4.48 | – | 5.84 | –
30 | CCCCCCCCCCCCCCCCS(=O)(=O)NCCCOCCCCOCCCN [MQTS 2370] | < 2.30 | 4.65 | – | 4.51 | much lower activities
31 | CCCCCCCCCCCCCCCCS(=O)(=O)NCCCN(CCCNCCCNCCCCNCCCN)CCCNS(=O)(=O)CCCCCCCCCCCCCCCC [MQTS 2391] | 5.03 | 5.57 | – | 5.28 | –
32 | CCCCCCCCCCCCS(=O)(=O)NCCNCCCNCCN [MQTS 2412] | 5.32 | 6.16 | – | – | –
33 | CCCCCCCCCCCCCCCCS(=O)(=O)NCCN(CCN)CCN [MQTS 2410] | 5.45 | 6.42 | – | – | –
34 | CCCCCCCCCCCCCCCCCCS(=O)(=O)NCCCNCCCNCCCCNCCCN [MQTS 2380, N^1-Octadecanylsulfonyl-1,18-diamino-5,9,14-triazaoctadecane] | 5.35 | 5.97 | – | 6.64 | –
